According to patent publication US20230192705A1, “SHP2 INHIBITORS, COMPOSITIONS AND USES THEREOF” (Betta Pharmaceuticals Co., Ltd, priority 2020, published 2023):

Experiments:
[1] = In vitro metabolic stability in rat liver microsome; format: in vitro ADME; conditions: rat liver microsomes
Procedure: (§1) 1900 mg MgCl2 was dissolved into a final volume of 400 mL ultra-pure water.
(§2) 17.42 g K2HPO4 and 13.65 g KH2PO4 were dissolved into a final volume of 1000 mL ultra-pure water, respectively. K2HPO4 and KH2PO4 were mixed to prepare 100 mM potassium phosphate (PBS) buffer. The pH value of the final solution was adjusted to pH 7.30±0.10.
(§3) Cold ACN (including 10 ng/mL Labetalol and 10 ng/mL Glibenclamid) was stored at 4° C.
(§4) Working Solution Preparation:
(§5) Verapamil (positive control) and test compound stock solution were diluted into a concentration of 50 μM and 200 μM respectively, using MeOH/ACN/H2O solution (1:1:2, v/v/v).
(§6) 1) 40 μL MgCl2 and 306 μL PBS were added to 96 plate wells (blank, compound wells, compounds without NADPH wells)
(§7) 2) 4 μL compound working solution was added to above wells (blank: 4 μL PBS buffer) (Note: the volume of DMSO in final incubation system ≤0.5%)
(§8) 3) 10 μL microsomes (20 mg/mL) was added in each well. The mixture was warmed up for 10 minutes at 37.0° C.
(§9) 4) 40 μL 10 mM NADPH working solution was added to start reaction. The total volume was 400 μL.
(§10) 5) Aliquots of 50 μL samples were taken from the reaction solution at 0, 5, 15, 45 min. The reaction solutions were stopped by the addition of 400 μL stop solution.
(§11) 6) The sampling plates were shaked for approx. 5 min.
(§12) 7) Samples were centrifuged at 3200 rcf for 10 min. then transferred 50 μL to a new plate dilute with 200 μL H2O for LC/MS/MS analysis.
(§13) Use equation of first order kinetics to calculate t1/2 and CL: […]
(§14) Where k represents elimination constant, which is calculated from a log linear plot of % Remaining versus time. t1/2 represents the half-life. Cprotein is the concentration of liver microsomes.

hERG channel = biological target: T1, hERG channel (Homo sapiens, UniProt Q12809); assay: Patch clamp assay to test the effect of compound on hERG channel; format: cell-based; conditions: manual patch clamp, HEK 293 cells expressed with hERG, concentration for half maximum effect
T1 construct: expressed in transfected cells; host or cells: HEK-293
T1 sequence (Q12809 whole entry): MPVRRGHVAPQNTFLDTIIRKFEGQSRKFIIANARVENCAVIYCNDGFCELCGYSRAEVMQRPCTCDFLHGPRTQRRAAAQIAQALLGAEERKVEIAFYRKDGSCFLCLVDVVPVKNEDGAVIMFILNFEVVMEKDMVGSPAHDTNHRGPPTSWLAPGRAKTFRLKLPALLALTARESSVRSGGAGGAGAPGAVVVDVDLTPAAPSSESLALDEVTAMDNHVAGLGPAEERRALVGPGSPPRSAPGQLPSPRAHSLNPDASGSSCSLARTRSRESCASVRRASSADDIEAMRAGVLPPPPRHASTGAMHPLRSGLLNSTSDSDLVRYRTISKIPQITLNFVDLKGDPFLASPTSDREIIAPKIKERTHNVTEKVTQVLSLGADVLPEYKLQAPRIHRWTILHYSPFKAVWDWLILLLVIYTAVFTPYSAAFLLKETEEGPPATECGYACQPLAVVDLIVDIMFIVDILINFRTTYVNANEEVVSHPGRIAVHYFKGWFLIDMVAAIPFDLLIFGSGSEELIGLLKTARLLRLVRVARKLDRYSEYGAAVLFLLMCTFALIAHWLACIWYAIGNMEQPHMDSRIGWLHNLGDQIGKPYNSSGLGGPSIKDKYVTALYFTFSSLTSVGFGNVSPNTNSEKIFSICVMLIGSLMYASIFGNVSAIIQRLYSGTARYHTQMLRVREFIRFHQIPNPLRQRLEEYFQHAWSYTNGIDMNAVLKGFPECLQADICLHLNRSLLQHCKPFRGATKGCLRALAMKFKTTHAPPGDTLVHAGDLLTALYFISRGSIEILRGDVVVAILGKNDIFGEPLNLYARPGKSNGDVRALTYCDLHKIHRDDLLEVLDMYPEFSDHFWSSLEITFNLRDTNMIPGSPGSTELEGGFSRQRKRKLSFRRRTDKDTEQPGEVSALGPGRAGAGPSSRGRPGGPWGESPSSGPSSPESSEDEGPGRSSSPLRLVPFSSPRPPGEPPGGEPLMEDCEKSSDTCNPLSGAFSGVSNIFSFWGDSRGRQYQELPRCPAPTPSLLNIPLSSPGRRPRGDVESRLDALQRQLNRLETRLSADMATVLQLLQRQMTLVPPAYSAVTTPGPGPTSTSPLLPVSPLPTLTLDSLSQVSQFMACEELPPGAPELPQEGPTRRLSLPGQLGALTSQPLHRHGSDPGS
Procedure: 10 mL extracellular solution was used to dilute the stock solution, making the final concentrations of test compound were 0.3 μM, 1 μM, 3 μM, 10 μM and 30 μM.
The solubility of compound was visually observed.
The cell line was derived from HEK-293 cells, and grown in a humidified environment at 37° C. under 5% CO2, using the media formulation below. The cell line should not be allowed to exceed 80% confluence within the culture vessel to prevent contact inhibition causing senescence and should thus be passaged every 3/4 days using a seeding density of 2*10^6 cells per T175 flask. Cell lines were be pre-washed with phosphate buffered saline before harvesting with Trypsin/EDTA and seeded into new flasks.
HEK 293 cells expressed with hERG were plated on cover slips overnight with the cell density less than 50% of confluence. Cells used for electrophysiological study were transferred to a small cell bath (1 mL) mounted on the stage of an inverted microscope (Diaphot, Nikon) and were perfused with external solution containing (in mM) 130 NaCl, 4 KCl, 1.8 CaCl2), 1 MgCl2, 10 glucose and 10 HEPES (pH 7.4 with NaOH), the perfusion rate was 4 mL/min. The internal pipette solution contained (in mM) 130 KCl, 1 MgCl2, 5 ethylene glycol-bis(baminoethyl ether)-N,N,N8,N8-tetraacetic acid, 5 MgATP and 10 HEPES (pH 7.2 with KOH). An HEKA EPC-10 patch-clamp amplifier and PATCHMASTER acquisition program were used to record membrane currents (HEKA Instruments IncD-67466 Lambrecht/Pfalz Germany). All experiments were performed at room temperature (22-23° C.).
The Model P-97 micropipette puller (Sutter Instrument Company, One Digital Drive, Novato, Calif. 94949) was used to pull glass patch pipettes (BF150-86-10) in all experiments.
The experiments were initiated with a 2 min vehicle control period after forming a whole cell configuration with less 5% run-down in 5 min and the tail currents in the report were at least greater than 500 pA. After a 2 min vehicle control period, the perfusion was switched to the reservoir containing the compound at the first concentration. The same procedure was repeated 3-5 times so that each cell was exposed to 4-6 escalating concentrations of compound. The time courses for block and unblock of hERG during compounds exposure and washout were continuously recorded.
The peak tail of hERG was generated by applying 2-sec depolarizing every 12 sec steps from a holding potential of −80 mV, the peak of tail currents were measured at a 5-sec repolarizing pulse at −50 mV.
hERG peak tail currents were directly measured from a 5 sec repolarization pulse at −50 mV. The fraction of control current was plotted as a function of logarithm of compound concentration. To determine the concentration of compound for halfmaximum effect, the concentration-response curve was fitted by Hill equation as shown follow.
where Y is the observed value, Bottom is the lowest observed value (0), Top is the highest observed value (1), and the Hillcoefficient gives the largest absolute value of the slope of the curve.
Data were analyzed by a combination of PATCHMASTER ((HEKA Instruments IncD-67466 Lambrecht/Pfalz Germany) and Origin (OriginLab Corporation, Northampton, Mass.) software programs.
Data were expressed as mean±SEM.

[2] = In vitro metabolic stability in human liver microsome; format: in vitro ADME; conditions: human liver microsomes
Procedure: as §1, §2, §3, §4, §5, §6, §7, §8, §9, §10, §11, §12, §13, §14

| CLint Rat [1] | CLint Human [2] | SMILES | IC50 (hERG channel) |
| --- | --- | --- | --- |
| 15.0 μL/min/mg proteins | 11.8 μL/min/mg proteins | N[C@@H]1c2ccccc2CC12CCN(c1nc3[nH]nc(C4(c5csnn5)CC4)c3c(=O)[nH]1)CC2 [Example 240, (S)-3-(1-(1,2,3-thiadiazol-4-yl)cyclopropyl)-6-(1-amino-1,3-dihydrospiro[indene-2,4′-piperidin]-1′-yl)-1,5-dihydro-4H-pyrazolo[3,4-d]pyrimidin-4-one] | 17.1 µM |
| 6.6 μL/min/mg proteins | 8.6 μL/min/mg proteins | N[C@@H]1c2ccccc2CC12CCN(c1nc3[nH]nc(C4(c5ccc(F)cc5)CC4)c3c(=O)[nH]1)CC2 [Example 11, (S)-6-(1-amino-1,3-dihydrospiro[indene-2,4′-piperidin]-1′-yl)-3-(1-(4-fluorophenyl)cyclopropyl)-1,5-dihydro-4H-pyrazolo[3,4-d]pyrimidin-4-one] |  |
| 3.2 μL/min/mg proteins | 9.2 μL/min/mg proteins | Nc1ccc(C2(c3n[nH]c4nc(N5CCC6(CC5)Cc5ccccc5[C@H]6N)[nH]c(=O)c34)CC2)cc1 [Example 230, (S)-6-(1-amino-1,3-dihydrospiro[indene-2,4′-piperidin]-1′-yl)-3-(1-(4-aminophenyl)cyclopropyl)-1,5-dihydro-4H-pyrazolo[3,4-d]pyrimidin-4-one] | > 30 µM |
| 6.6 μL/min/mg proteins | 10.4 μL/min/mg proteins | N[C@@H]1c2ccccc2CC12CCN(c1nc3[nH]nc(C4(c5ccc(O)cc5)CC4)c3c(=O)[nH]1)CC2 [Example 234, (S)-6-(1-amino-1,3-dihydrospiro[indene-2,4′-piperidin]-1′-yl)-3-(1-(4-hydroxyphenyl)cyclopropyl)-1,5-dihydro-4H-pyrazolo[3,4-d]pyrimidin-4-one] | > 30 µM |
| 14.3 μL/min/mg proteins | 9.8 μL/min/mg proteins | N[C@@H]1c2ccccc2CC12CCN(c1nc3[nH]nc(C4(c5ccc6c(c5)OC(F)(F)O6)CC4)c3c(=O)[nH]1)CC2 [Example 13, (S)-6-(1-amino-1,3-dihydrospiro[indene-2,4′-piperidin]-1′-yl)-3-(1-(2,2-difluorobenzo[d][1,3]dioxol-5-yl)cyclopropyl)-1,5-dihydro-4H-pyrazolo[3,4-d]pyrimidin-4-one] |  |
| 17.4 μL/min/mg proteins | 10.6 μL/min/mg proteins | N[C@@H]1c2ccccc2CC12CCN(c1nc3[nH]nc(C4(c5ccccc5)CC4)c3c(=O)[nH]1)CC2 [Example 33] | 9.5 µM |
| 12.4 μL/min/mg proteins | 6.2 μL/min/mg proteins | N[C@@H]1c2ccccc2CC12CCN(c1nc3[nH]nc(C4(c5ccc(C(F)(F)F)cc5)CC4)c3c(=O)[nH]1)CC2 [Example 228, (S)-6-(1-amino-1,3-dihydrospiro[indene-2,4′-piperidin]-1′-yl)-3-(1-(4-(trifluoromethyl)phenyl)cyclo-propyl)-1,5-dihydro-4H-pyrazolo[3,4-d]pyrimidin-4-one] |  |
| 19.1 μL/min/mg proteins | 16.5 μL/min/mg proteins | N[C@@H]1c2ccccc2CC12CCN(c1nc3[nH]nc(C4(c5ccc6c(c5)OCO6)CC4)c3c(=O)[nH]1)CC2 [Example 34, (S)-6-(1-amino-1,3-dihydrospiro[indene-2,4′-piperidin]-1′-yl)-3-(1-(benzo[d][1,3]dioxol-5-yl)cyclopropyl)-1,5-dihydro-4H-pyrazolo[3,4-d]pyrimidin-4-one] | 6.9 µM |
| 3.8 μL/min/mg proteins | 10.4 μL/min/mg proteins | N[C@@H]1c2ccccc2CC12CCN(c1nc3[nH]nc(C4(c5ccc(Cl)c(Cl)c5)CC4)c3c(=O)[nH]1)CC2 [Example 21, (S)-6-(1-amino-1,3-dihydrospiro[indene-2,4′-piperidin]-1′-yl)-3-(1-(3,4-dichlorophenyl)cyclopropyl)-1,5-dihydro-4H-pyrazolo[3,4-d]pyrimidin-4-one] |  |

More lines, now with the values behind:

| SMILES | CLint Rat [1] | CLint Human [2] | IC50 (hERG channel) |
| --- | --- | --- | --- |
| N[C@@H]1c2ccccc2CC12CCN(c1nc3[nH]nc(C4(c5ccccc5)COC4)c3c(=O)[nH]1)CC2 [Example 96, (S)-6-(1-amino-1,3-dihydrospiro[indene-2,4′-piperidin]-1′-yl)-3-(3-phenyloxetan-3-yl)-1,5-dihydro-4H-pyrazolo[3,4-d]pyrimidin-4-one] |  |  | > 30 µM |
| N[C@@H]1c2ccccc2CC12CCN(c1nc3[nH]nc(C4(c5ccccc5)CC4(F)F)c3c(=O)[nH]1)CC2 (stereo partly drawn) [Example 9, 6-((S)-1-amino-1,3-dihydrospiro[indene-2,4′-piperidin]-1′-yl)-3-(2,2-difluoro-1-phenylcyclopropyl)-1,5-dihydro-4H-pyrazolo[3,4-d]pyrimidin-4-one] | 10.5 μL/min/mg proteins | 16.9 μL/min/mg proteins | 10.4 µM |
| N[C@@H]1c2ccccc2CC12CCN(c1nc3[nH]nc(C4(c5cccc(C(F)(F)F)c5)CC4)c3c(=O)[nH]1)CC2 [Example 8, (S)-6-(1-amino-1,3-dihydrospiro[indene-2,4′-piperidin]-1′-yl)-3-(1-(3-(trifluoromethyl)plienyl)cyclo-propyl)-1,5-dihydro-4H-pyrazolo[3,4-d]pyrimidin-4-one] | 11.6 μL/min/mg proteins | 9.2 μL/min/mg proteins |  |
| N[C@@H]1c2ccccc2CC12CCN(c1nc3[nH]nc(C4(c5cccc(F)c5)CC4)c3c(=O)[nH]1)CC2 [Example 6, (S)-6-(1-amino-1,3-dihydrospiro[indene-2,4′-piperidin]-1′-yl)-3-(1-(3-fluorophenyl)cyclopropyl)-1,5-dihydro-4H-pyrazolo[3,4-d]pyrimidin-4-one] | 11.2 μL/min/mg proteins | 19.5 μL/min/mg proteins |  |
| N[C@@H]1c2ccccc2CC12CCN(c1nc3[nH]nc(C4(c5cccs5)CC4)c3c(=O)[nH]1)CC2 [Example 24, (S)-6-(1-amino-1,3-dihydrospiro[indene-2,4′-piperidin]-1′-yl)-3-(1-(thiophen-2-yl)cyclopropyl)-1,5-dihydro-4H-pyrazolo[3,4-d]pyrimidin-4-one] |  |  | 14.8 µM |
| Cn1c(N2CCC3(CC2)Cc2ccccc2[C@H]3N)nc2[nH]nc(C3(c4ccccc4)CC3)c2c1=O [Example 1] | 34.7 μL/min/mg proteins | 95.2 μL/min/mg proteins | 1.76 µM |
| N#Cc1ccc(C2(c3n[nH]c4nc(N5CCC6(CC5)Cc5ccccc5[C@H]6N)[nH]c(=O)c34)CC2)cc1 [Example 237, (S)-4-(1-(6-(1-amino-1,3-dihydrospiro[indene-2,4′-piperidin]-1′-yl)-4-oxo-4,5-dihydro-1H-pyrazolo[3,4-d]pyrimidin-3-yl)cyclopropyl)benzonitrile] |  |  | 7.9 µM |
